Source: ChEMBL document CHEMBL3885881, “DrugMatrix”

Species on record: Rattus norvegicus
Assay: DrugMatrix - Regimen: Daily Repeat
Format: toxicity, organism-based, Sprague-Dawley
Parameters: regimen Daily Repeat, gender Male, age 6-8 weeks
Settings: in vivo, po, route oral GAVAGE, vehicle 100 % WATER; for ABSOLUTE BASOPHIL / ABSOLUTE EOSINOPHIL / ABSOLUTE LYMPHOCYTE / ABSOLUTE MONOCYTE / ABSOLUTE SEGMENTED NEUTROPHIL / BASOPHIL / EOSINOPHIL / ERYTHROCYTE COUNT / HEMATOCRIT / HEMOGLOBIN / LEUKOCYTE COUNT / LYMPHOCYTE / MEAN CORPUSCULAR HEMOGLOBIN / MEAN CORPUSCULAR HEMOGLOBIN CONCENTRATION / MEAN CORPUSCULAR VOLUME / MONOCYTE / NEUTROPHIL / NUCLEATED RED BLOOD CELLS / PLATELET COUNT: tissue Blood; for ALANINE AMINOTRANSFERASE / ALBUMIN / ALKALINE PHOSPHATASE / ASPARTATE AMINOTRANSFERASE / BLOOD UREA NITROGEN / CARBON DIOXIDE / CHLORIDE / CHOLESTEROL / CREATINE PHOSPHOKINASE / CREATININE / GLUCOSE / LACTATE DEHYDROGENASE / LIPASE / PHOSPHORUS / POTASSIUM / SODIUM / TOTAL BILIRUBIN / TOTAL PROTEIN / URIC ACID: tissue Plasma
[1] = 58 mg/kg, 120 h, dose level Low, time 5 day
[2] = 220 mg/kg, 72 h, dose level High, time 3 day
[3] = 220 mg/kg, 120 h, dose level High, time 5 day

NC12CC3CC(CC(C3)C1)C2 [AMANTADINE]
ABSOLUTE BASOPHIL [1]: 0 CELLS/uL
ABSOLUTE EOSINOPHIL [1]: 0 CELLS/uL
ABSOLUTE LYMPHOCYTE [1]: 10747.67 CELLS/uL
ABSOLUTE MONOCYTE [1]: 83.67 CELLS/uL
ABSOLUTE SEGMENTED NEUTROPHIL [1]: 1002 CELLS/uL
BASOPHIL [1]: 0%
EOSINOPHIL [1]: 0%
ERYTHROCYTE COUNT [1]: 6.06 x10E6/uL
HEMATOCRIT [1]: 37.8%
HEMOGLOBIN [1]: 14.9 G/DL
LEUKOCYTE COUNT [1]: 11.83 x10E3/uL
LYMPHOCYTE [1]: 89%
MEAN CORPUSCULAR HEMOGLOBIN [1]: 24.63 pg
MEAN CORPUSCULAR HEMOGLOBIN CONCENTRATION [1]: 39.43 G/DL
MEAN CORPUSCULAR VOLUME [1]: 62.5 fL
MONOCYTE [1]: 1%
NEUTROPHIL [1]: 10%
NUCLEATED RED BLOOD CELLS [1]: 0 /100WBC
PLATELET COUNT [1]: 1200.33 x10E3/uL
ALANINE AMINOTRANSFERASE [1]: 44 u/L
ALBUMIN [1]: 4.27 G/DL
ALKALINE PHOSPHATASE [1]: 432.67 u/L
ASPARTATE AMINOTRANSFERASE [1]: 73.33 u/L
BLOOD UREA NITROGEN [1]: 16 mg/dL
CARBON DIOXIDE [1]: 31 mmol/L
CHLORIDE [1]: 100.33 MEQ/L
CHOLESTEROL [1]: 73.33 mg/dL
CREATINE PHOSPHOKINASE [1]: 431.33 u/L
CREATININE [1]: 0.18 mg/dL
GLUCOSE [1]: 147 mg/dL
LACTATE DEHYDROGENASE [1]: 336 u/L
LIPASE [1]: 11.33 u/L
PHOSPHORUS [1]: 12.13 mg/dL
POTASSIUM [1]: 6.25 MEQ/L
SODIUM [1]: 142.77 MEQ/L
TOTAL BILIRUBIN [1]: 0.23 mg/dL
TOTAL PROTEIN [1]: 6.27 G/DL
URIC ACID [1]: 1.43 mg/dL
ABSOLUTE BASOPHIL [2]: 0 CELLS/uL
ABSOLUTE EOSINOPHIL [2]: 0 CELLS/uL
ABSOLUTE LYMPHOCYTE [2]: 17634 CELLS/uL
ABSOLUTE MONOCYTE [2]: 192.33 CELLS/uL
ABSOLUTE SEGMENTED NEUTROPHIL [2]: 940.33 CELLS/uL
BASOPHIL [2]: 0%
EOSINOPHIL [2]: 0%
ERYTHROCYTE COUNT [2]: 5.62 x10E6/uL
HEMATOCRIT [2]: 36.3%
HEMOGLOBIN [2]: 14.43 G/DL
LEUKOCYTE COUNT [2]: 18.77 x10E3/uL
LYMPHOCYTE [2]: 94%
MEAN CORPUSCULAR HEMOGLOBIN [2]: 25.7 pg
MEAN CORPUSCULAR HEMOGLOBIN CONCENTRATION [2]: 39.77 G/DL
MEAN CORPUSCULAR VOLUME [2]: 64.63 fL
MONOCYTE [2]: 1%
NEUTROPHIL [2]: 5%
NUCLEATED RED BLOOD CELLS [2]: 0 /100WBC
PLATELET COUNT [2]: 1304.33 x10E3/uL
ALANINE AMINOTRANSFERASE [2]: 42.33 u/L
ALBUMIN [2]: 4.23 G/DL
ALKALINE PHOSPHATASE [2]: 440 u/L
ASPARTATE AMINOTRANSFERASE [2]: 69 u/L
BLOOD UREA NITROGEN [2]: 13.67 mg/dL
CARBON DIOXIDE [2]: 32 mmol/L
CHLORIDE [2]: 101 MEQ/L
CHOLESTEROL [2]: 61 mg/dL
CREATINE PHOSPHOKINASE [2]: 227.67 u/L
CREATININE [2]: 0.16 mg/dL
GLUCOSE [2]: 149 mg/dL
LACTATE DEHYDROGENASE [2]: 138.67 u/L
LIPASE [2]: 10.67 u/L
PHOSPHORUS [2]: 11.67 mg/dL
POTASSIUM [2]: 6.52 MEQ/L
SODIUM [2]: 143.17 MEQ/L
TOTAL BILIRUBIN [2]: 0.17 mg/dL
TOTAL PROTEIN [2]: 5.93 G/DL
URIC ACID [2]: 1.7 mg/dL
ABSOLUTE BASOPHIL [3]: 0 CELLS/uL
ABSOLUTE EOSINOPHIL [3]: 49 CELLS/uL
ABSOLUTE LYMPHOCYTE [3]: 15618.33 CELLS/uL
ABSOLUTE MONOCYTE [3]: 94.33 CELLS/uL
ABSOLUTE SEGMENTED NEUTROPHIL [3]: 971.67 CELLS/uL
BASOPHIL [3]: 0%
EOSINOPHIL [3]: 0.33%
ERYTHROCYTE COUNT [3]: 5.95 x10E6/uL
HEMATOCRIT [3]: 37.33%
HEMOGLOBIN [3]: 14.67 G/DL
LEUKOCYTE COUNT [3]: 16.73 x10E3/uL
LYMPHOCYTE [3]: 93.33%
MEAN CORPUSCULAR HEMOGLOBIN [3]: 24.73 pg
MEAN CORPUSCULAR HEMOGLOBIN CONCENTRATION [3]: 39.3 G/DL
MEAN CORPUSCULAR VOLUME [3]: 62.9 fL
MONOCYTE [3]: 0.67%
NEUTROPHIL [3]: 5.67%
NUCLEATED RED BLOOD CELLS [3]: 0 /100WBC
PLATELET COUNT [3]: 1216.33 x10E3/uL
ALANINE AMINOTRANSFERASE [3]: 55.33 u/L
ALBUMIN [3]: 4.13 G/DL
ALKALINE PHOSPHATASE [3]: 501 u/L
ASPARTATE AMINOTRANSFERASE [3]: 86.67 u/L
BLOOD UREA NITROGEN [3]: 14 mg/dL
CARBON DIOXIDE [3]: 31 mmol/L
CHLORIDE [3]: 100.67 MEQ/L
CHOLESTEROL [3]: 67.33 mg/dL
CREATINE PHOSPHOKINASE [3]: 446.67 u/L
CREATININE [3]: 0.17 mg/dL
GLUCOSE [3]: 165.67 mg/dL
LACTATE DEHYDROGENASE [3]: 167.33 u/L
LIPASE [3]: 11 u/L
PHOSPHORUS [3]: 11.4 mg/dL
POTASSIUM [3]: 6.52 MEQ/L
SODIUM [3]: 143.23 MEQ/L
TOTAL BILIRUBIN [3]: 0.23 mg/dL
TOTAL PROTEIN [3]: 6.3 G/DL
URIC ACID [3]: 1.77 mg/dL
